{"source": "paper PMC8550792", "about": "“Evolution of kinase polypharmacology across HSP90 drug discovery” (Cell Chemical Biology, 2021)", "assay_in_all_cases": "biochemical", "type_in_all_cases": "biochemical", "key": {"[1]": {"target": "T1, 382 unique human kinases (Homo sapiens, UniProt P00519, F317I)", "T1 construct": "purchased Reaction Biology (HotSpot contract assay)", "T1 sequence (P00519 whole entry F317I)": "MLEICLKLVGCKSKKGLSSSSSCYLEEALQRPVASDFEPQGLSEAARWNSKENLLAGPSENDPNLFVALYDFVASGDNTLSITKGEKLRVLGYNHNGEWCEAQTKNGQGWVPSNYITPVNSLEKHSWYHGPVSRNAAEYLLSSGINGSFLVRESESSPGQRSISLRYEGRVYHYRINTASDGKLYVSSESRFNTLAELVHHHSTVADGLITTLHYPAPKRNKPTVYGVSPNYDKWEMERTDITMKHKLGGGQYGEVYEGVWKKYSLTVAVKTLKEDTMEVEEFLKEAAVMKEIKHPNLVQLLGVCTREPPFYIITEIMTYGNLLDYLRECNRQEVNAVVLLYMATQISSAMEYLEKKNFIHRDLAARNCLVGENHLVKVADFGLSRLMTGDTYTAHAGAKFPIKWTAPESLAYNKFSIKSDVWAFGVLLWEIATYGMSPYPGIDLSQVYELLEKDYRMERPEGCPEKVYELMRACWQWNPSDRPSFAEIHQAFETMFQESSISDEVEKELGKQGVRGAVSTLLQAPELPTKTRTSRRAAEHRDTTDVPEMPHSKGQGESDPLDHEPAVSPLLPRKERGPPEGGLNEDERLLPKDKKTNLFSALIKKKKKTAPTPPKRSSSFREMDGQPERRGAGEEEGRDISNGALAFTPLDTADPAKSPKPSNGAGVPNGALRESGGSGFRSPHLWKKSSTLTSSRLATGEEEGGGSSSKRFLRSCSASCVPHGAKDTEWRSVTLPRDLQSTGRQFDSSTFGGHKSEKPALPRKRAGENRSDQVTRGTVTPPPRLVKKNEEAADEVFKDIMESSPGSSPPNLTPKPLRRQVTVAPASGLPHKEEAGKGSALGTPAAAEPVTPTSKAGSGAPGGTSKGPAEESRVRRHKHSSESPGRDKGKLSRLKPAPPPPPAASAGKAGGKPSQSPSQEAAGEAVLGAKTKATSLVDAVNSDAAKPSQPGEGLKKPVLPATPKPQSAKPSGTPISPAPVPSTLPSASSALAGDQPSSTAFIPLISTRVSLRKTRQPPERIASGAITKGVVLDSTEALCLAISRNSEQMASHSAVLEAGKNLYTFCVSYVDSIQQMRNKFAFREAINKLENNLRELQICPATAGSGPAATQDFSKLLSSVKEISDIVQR", "conditions": "ABL1 (F317I), [ATP] 5 µM, compound 10 uM; for remaining activity at 10 µM: read-out: % Enzyme Activity (relative to DMSO controls)"}, "[2]": {"target": "T2, 382 unique human kinases (Homo sapiens, UniProt P11362, V561M)", "T2 construct": "purchased Reaction Biology (HotSpot contract assay)", "T2 sequence (P11362 22-822 V561M)": "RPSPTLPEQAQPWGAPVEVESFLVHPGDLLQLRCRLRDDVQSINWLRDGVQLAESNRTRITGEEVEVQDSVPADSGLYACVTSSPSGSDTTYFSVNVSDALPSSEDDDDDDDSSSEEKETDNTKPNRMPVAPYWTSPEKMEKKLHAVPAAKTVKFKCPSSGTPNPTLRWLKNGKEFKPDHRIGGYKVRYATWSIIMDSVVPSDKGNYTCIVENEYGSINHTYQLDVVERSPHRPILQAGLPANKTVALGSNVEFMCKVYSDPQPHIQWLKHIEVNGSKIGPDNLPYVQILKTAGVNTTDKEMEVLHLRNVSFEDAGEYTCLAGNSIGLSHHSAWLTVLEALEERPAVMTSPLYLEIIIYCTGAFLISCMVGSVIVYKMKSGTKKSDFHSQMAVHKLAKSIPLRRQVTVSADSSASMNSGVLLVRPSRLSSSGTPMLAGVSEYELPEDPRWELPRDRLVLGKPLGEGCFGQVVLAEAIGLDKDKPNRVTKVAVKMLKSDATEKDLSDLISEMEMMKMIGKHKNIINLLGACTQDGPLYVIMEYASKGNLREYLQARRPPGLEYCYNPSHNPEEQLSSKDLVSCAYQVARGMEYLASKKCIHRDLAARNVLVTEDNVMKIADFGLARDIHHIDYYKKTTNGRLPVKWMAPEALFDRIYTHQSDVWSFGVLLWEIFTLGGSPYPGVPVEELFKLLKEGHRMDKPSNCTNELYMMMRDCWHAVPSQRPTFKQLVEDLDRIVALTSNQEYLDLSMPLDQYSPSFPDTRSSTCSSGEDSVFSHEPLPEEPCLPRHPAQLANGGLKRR", "conditions": "FGFR1 (V561M), 10 uM; for remaining activity at 10 µM: read-out: % Enzyme Activity (relative to DMSO controls)"}, "[3]": {"target": "T3, 382 unique human kinases (Homo sapiens, UniProt P51812, I416V)", "T3 construct": "purchased Reaction Biology (HotSpot contract assay)", "T3 sequence (P51812 whole entry I416V)": "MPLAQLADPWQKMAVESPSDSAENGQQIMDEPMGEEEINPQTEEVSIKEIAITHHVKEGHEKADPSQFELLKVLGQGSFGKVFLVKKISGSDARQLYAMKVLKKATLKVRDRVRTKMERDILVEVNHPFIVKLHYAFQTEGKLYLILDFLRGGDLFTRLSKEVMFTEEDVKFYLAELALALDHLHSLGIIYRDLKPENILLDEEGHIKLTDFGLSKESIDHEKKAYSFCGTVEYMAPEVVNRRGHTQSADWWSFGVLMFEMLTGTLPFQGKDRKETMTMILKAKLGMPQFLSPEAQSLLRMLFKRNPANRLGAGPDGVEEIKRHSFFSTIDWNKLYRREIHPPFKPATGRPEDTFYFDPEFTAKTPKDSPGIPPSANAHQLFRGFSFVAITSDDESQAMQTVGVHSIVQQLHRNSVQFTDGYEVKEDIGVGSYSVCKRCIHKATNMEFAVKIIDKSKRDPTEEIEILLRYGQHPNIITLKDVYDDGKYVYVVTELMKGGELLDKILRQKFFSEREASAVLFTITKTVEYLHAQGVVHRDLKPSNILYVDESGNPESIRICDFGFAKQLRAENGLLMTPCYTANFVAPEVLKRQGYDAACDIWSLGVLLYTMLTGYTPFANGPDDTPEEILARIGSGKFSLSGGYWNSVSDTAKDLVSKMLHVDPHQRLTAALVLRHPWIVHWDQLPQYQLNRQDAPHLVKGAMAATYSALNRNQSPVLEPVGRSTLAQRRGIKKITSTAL", "conditions": "RSK2 (I416V), [ATP] 10 µM, compound 10 uM; for remaining activity at 10 µM: read-out: % Enzyme Activity (relative to DMSO controls)"}, "[4]": {"target": "T4, 382 unique human kinases (Homo sapiens, UniProt P68400)", "T4 construct": "purchased Reaction Biology (HotSpot contract assay)", "conditions": "CK2a, 10 uM; for remaining activity at 10 µM: read-out: % Enzyme Activity (relative to DMSO controls)"}, "[5]": {"target": "T5, 382 unique human kinases (Homo sapiens, UniProt O15264)", "T5 construct": "purchased Reaction Biology (HotSpot contract assay)", "T5 sequence (O15264 1-365)": "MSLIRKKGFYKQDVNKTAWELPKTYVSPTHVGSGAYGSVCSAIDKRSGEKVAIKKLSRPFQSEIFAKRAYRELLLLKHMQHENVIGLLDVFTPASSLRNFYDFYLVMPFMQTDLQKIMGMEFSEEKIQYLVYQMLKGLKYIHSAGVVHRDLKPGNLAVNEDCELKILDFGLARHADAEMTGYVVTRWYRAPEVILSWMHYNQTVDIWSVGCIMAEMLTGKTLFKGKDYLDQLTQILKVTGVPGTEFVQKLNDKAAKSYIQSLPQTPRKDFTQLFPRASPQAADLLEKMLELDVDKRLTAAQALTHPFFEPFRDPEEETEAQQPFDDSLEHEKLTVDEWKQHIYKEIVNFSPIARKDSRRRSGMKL", "conditions": "P38d/MAPK13, 10 uM; for remaining activity at 10 µM: read-out: % Enzyme Activity (relative to DMSO controls)"}, "[6]": {"target": "T6, 382 unique human kinases (Homo sapiens, UniProt P22607, G697C)", "T6 construct": "purchased Reaction Biology (HotSpot contract assay)", "T6 sequence (P22607 23-806 G697C)": "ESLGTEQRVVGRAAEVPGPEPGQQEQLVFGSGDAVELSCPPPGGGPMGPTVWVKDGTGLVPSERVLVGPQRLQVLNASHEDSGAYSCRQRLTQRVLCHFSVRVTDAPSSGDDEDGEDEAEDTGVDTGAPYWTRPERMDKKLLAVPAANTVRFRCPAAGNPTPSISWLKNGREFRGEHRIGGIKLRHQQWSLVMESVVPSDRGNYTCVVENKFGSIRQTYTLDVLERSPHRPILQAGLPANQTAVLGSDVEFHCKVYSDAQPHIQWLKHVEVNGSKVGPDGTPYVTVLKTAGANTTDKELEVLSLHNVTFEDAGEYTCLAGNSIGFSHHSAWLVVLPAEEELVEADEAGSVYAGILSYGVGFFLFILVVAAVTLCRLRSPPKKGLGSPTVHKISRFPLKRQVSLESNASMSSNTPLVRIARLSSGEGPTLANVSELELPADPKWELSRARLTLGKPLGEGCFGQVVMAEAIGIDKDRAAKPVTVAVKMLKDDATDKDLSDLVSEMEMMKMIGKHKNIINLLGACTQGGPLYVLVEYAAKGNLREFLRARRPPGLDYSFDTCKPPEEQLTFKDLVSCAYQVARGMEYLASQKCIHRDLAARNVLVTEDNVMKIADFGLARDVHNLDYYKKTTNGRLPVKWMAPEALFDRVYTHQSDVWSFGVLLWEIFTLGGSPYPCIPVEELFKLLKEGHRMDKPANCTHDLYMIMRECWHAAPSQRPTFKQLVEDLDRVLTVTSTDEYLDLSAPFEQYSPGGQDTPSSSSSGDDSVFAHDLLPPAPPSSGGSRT", "conditions": "FGFR3 (G697C), 10 uM; for remaining activity at 10 µM: read-out: % Enzyme Activity (relative to DMSO controls)"}, "[7]": {"target": "T7, 382 unique human kinases (Homo sapiens, UniProt P30530, R499C)", "T7 construct": "purchased Reaction Biology (HotSpot contract assay)", "T7 sequence (P30530 26-894 R499C)": "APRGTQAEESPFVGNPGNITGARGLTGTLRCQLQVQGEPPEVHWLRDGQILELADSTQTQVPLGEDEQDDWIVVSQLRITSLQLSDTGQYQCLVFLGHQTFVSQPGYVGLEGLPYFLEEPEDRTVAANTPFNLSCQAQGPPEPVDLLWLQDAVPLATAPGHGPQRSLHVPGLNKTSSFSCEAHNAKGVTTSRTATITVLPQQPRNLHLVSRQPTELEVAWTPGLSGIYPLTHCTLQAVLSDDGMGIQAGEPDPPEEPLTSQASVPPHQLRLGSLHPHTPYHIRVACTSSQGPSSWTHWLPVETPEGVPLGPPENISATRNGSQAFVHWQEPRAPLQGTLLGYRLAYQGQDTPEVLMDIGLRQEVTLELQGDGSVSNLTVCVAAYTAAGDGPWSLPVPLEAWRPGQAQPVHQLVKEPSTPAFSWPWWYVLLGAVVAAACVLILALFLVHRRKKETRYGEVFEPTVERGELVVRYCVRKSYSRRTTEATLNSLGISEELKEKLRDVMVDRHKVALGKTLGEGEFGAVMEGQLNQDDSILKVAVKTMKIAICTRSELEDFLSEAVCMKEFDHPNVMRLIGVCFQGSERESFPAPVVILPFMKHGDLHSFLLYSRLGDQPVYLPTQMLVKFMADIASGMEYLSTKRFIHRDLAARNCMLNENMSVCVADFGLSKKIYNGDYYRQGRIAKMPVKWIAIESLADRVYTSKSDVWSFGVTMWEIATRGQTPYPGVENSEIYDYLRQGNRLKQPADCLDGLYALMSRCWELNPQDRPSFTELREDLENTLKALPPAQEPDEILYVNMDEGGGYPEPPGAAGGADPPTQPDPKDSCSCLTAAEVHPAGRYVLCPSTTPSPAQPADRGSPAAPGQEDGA", "conditions": "AXL (R499C), 10 uM; for remaining activity at 10 µM: read-out: % Enzyme Activity (relative to DMSO controls)"}, "[8]": {"target": "T8, 382 unique human kinases (Homo sapiens, UniProt Q9NRH2)", "T8 construct": "purchased Reaction Biology (HotSpot contract assay)", "T8 sequence (Q9NRH2 1-765)": "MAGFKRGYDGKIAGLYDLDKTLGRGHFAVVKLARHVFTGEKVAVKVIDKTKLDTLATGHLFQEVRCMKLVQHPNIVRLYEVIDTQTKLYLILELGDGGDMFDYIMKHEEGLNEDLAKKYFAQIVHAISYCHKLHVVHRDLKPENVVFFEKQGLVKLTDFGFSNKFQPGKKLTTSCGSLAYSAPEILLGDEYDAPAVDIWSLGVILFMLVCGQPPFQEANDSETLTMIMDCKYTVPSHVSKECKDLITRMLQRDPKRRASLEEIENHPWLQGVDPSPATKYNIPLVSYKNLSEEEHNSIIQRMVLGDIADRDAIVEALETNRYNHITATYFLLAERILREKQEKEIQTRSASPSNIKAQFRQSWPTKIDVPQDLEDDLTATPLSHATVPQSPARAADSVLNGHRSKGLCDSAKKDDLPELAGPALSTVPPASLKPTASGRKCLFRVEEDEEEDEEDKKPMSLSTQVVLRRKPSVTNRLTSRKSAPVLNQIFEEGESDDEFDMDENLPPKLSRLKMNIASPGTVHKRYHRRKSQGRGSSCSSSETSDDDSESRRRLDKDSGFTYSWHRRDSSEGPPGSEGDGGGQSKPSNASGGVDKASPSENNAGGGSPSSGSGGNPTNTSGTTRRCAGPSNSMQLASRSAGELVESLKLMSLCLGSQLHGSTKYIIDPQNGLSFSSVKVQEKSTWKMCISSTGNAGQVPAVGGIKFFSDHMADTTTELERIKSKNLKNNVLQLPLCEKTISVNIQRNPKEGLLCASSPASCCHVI", "conditions": "SNRK, 10 uM; for remaining activity at 10 µM: read-out: % Enzyme Activity (relative to DMSO controls)"}, "[9]": {"target": "T9, 382 unique human kinases (Homo sapiens, UniProt Q9UM73, F1174L)", "T9 construct": "purchased Reaction Biology (HotSpot contract assay)", "T9 sequence (Q9UM73 19-1620 F1174L)": "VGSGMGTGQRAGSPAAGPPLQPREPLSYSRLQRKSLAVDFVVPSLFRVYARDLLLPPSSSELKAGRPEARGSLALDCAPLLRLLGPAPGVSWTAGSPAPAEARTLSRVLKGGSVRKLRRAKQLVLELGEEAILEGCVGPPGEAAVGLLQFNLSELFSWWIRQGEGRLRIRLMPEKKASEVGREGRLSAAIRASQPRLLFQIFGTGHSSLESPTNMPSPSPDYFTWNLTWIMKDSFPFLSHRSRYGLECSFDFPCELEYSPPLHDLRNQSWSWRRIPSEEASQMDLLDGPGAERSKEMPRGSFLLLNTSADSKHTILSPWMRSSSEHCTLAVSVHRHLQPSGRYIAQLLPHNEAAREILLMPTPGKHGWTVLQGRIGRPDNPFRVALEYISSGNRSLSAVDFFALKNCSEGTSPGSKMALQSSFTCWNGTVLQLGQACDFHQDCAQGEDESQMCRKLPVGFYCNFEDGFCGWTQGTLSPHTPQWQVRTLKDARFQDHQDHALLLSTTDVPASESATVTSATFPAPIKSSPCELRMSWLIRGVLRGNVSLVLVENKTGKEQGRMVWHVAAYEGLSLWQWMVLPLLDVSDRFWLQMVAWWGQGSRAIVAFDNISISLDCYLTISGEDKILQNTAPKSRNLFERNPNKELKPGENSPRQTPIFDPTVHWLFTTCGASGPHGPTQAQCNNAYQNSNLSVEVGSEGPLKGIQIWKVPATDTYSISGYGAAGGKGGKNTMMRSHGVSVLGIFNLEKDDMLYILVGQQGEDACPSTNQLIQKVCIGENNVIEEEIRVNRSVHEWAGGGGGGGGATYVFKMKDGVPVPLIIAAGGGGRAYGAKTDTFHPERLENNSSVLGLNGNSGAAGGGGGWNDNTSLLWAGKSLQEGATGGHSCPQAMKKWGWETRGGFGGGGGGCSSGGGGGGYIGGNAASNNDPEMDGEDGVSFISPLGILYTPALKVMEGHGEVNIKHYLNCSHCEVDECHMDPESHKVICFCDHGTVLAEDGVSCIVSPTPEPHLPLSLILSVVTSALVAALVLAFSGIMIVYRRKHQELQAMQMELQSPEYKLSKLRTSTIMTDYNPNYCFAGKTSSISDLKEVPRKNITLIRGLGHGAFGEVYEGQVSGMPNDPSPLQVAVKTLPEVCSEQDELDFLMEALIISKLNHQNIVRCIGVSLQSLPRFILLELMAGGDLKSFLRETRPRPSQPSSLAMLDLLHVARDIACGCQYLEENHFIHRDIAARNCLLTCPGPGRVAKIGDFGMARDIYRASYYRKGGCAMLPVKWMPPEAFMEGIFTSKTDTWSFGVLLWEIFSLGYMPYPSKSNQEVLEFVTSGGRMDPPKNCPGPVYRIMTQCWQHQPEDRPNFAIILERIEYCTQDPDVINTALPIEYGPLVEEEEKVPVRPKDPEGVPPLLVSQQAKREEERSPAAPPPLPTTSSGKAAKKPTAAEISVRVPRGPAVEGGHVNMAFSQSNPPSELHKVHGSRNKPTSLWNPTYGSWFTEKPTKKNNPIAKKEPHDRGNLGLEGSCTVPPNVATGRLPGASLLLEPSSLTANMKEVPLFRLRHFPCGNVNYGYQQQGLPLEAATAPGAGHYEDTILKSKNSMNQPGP", "conditions": "ALK (F1174L), 10 uM; for remaining activity at 10 µM: read-out: % Enzyme Activity (relative to DMSO controls)"}}}
{"smiles": "CCNC(=O)c1noc(-c2cc(C(C)C)c(O)cc2O)c1-c1ccc(CN2CCOCC2)cc1", "note": "[Luminespib]", "values": [{"measurement": "% Enzyme Activity (relative to DMSO controls)", "setting": "[1]", "value": 24.59, "unit": "%"}, {"measurement": "remaining activity at 10 µM", "setting": "[1]", "value": 25.7, "unit": "%"}, {"measurement": "% Enzyme Activity (relative to DMSO controls)", "setting": "[2]", "value": 101.68, "unit": "%"}, {"measurement": "remaining activity at 10 µM", "setting": "[2]", "value": 103, "unit": "%"}, {"measurement": "% Enzyme Activity (relative to DMSO controls)", "setting": "[3]", "value": 87.06, "unit": "%"}, {"measurement": "remaining activity at 10 µM", "setting": "[3]", "value": 88.9, "unit": "%"}, {"measurement": "% Enzyme Activity (relative to DMSO controls)", "setting": "[4]", "value": 112.96, "unit": "%"}, {"measurement": "remaining activity at 10 µM", "setting": "[4]", "value": 117, "unit": "%"}]}
{"smiles": "CC(C)c1cc(-c2n[nH]c(=O)n2-c2ccc3c(ccn3C)c2)c(O)cc1O", "note": "[Ganetespib (STA9090)]", "values": [{"measurement": "remaining activity at 10 µM", "setting": "[5]", "value": 83.5, "unit": "%"}, {"measurement": "remaining activity at 10 µM", "setting": "[6]", "value": 61.9, "unit": "%"}, {"measurement": "remaining activity at 10 µM", "setting": "[7]", "value": 66.4, "unit": "%"}, {"measurement": "remaining activity at 10 µM", "setting": "[8]", "value": 76.8, "unit": "%"}, {"measurement": "remaining activity at 10 µM", "setting": "[9]", "value": 63.6, "unit": "%"}]}
{"smiles": "CCNC(=O)c1noc(-c2cc(C(C)C)c(O)cc2O)c1-c1ccc(CN2CCOCC2)cc1", "note": "[Luminespib (AUY-922)]", "values": [{"measurement": "% Enzyme Activity (relative to DMSO controls)", "setting": "[5]", "value": 86.84, "unit": "%"}, {"measurement": "remaining activity at 10 µM", "setting": "[5]", "value": 86.8, "unit": "%"}, {"measurement": "% Enzyme Activity (relative to DMSO controls)", "setting": "[6]", "value": 102.74, "unit": "%"}, {"measurement": "remaining activity at 10 µM", "setting": "[6]", "value": 104, "unit": "%"}, {"measurement": "% Enzyme Activity (relative to DMSO controls)", "setting": "[7]", "value": 96.57, "unit": "%"}, {"measurement": "remaining activity at 10 µM", "setting": "[7]", "value": 98.8, "unit": "%"}, {"measurement": "% Enzyme Activity (relative to DMSO controls)", "setting": "[8]", "value": 79.00, "unit": "%"}, {"measurement": "remaining activity at 10 µM", "setting": "[8]", "value": 80.5, "unit": "%"}, {"measurement": "% Enzyme Activity (relative to DMSO controls)", "setting": "[9]", "value": 104.30, "unit": "%"}, {"measurement": "remaining activity at 10 µM", "setting": "[9]", "value": 104, "unit": "%"}]}
{"smiles": "CC(C)c1cc(-c2n[nH]c(=O)n2-c2ccc3c(ccn3C)c2)c(O)cc1O", "note": "[Ganetespib]", "values": [{"measurement": "remaining activity at 10 µM", "setting": "[1]", "value": 2.88, "unit": "%"}, {"measurement": "remaining activity at 10 µM", "setting": "[2]", "value": 97.7, "unit": "%"}, {"measurement": "remaining activity at 10 µM", "setting": "[3]", "value": 56.7, "unit": "%"}, {"measurement": "remaining activity at 10 µM", "setting": "[4]", "value": 101, "unit": "%"}]}
